PubChem BioAssay (NCI)
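Test compounds were applied to cells in 96-well plates for 48 hours at 5 doses. Abbreviation: GI50, concentration required for 50% inhibition of growth. At the TGI there is no net growth.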

What was measured:
Experiment in all cases: DTP human tumour cell line panel, 48 h
[1] = tested on: UACC-257 melanoma
[2] = tested on: ACHN renal
[3] = tested on: OVCAR-3 ovarian
[4] = tested on: HCT-15 colon
[5] = tested on: T-47D breast
[6] = tested on: SK-MEL-2 melanoma
[7] = tested on: 786-0 renal
[8] = tested on: SNB-19 CNS
[9] = tested on: M14 melanoma
[10] = tested on: SR leukemia

## C=C(C)C1Cc2cc(C(C)=O)ccc2O1 (stereo unspecified)
[1]
  TGI: > 100 µM
[2]
  TGI: > 100 µM
[3]
  TGI: > 100 µM
[4]
  TGI: > 100 µM
[5]
  TGI: > 100 µM
[6]
  TGI: > 100 µM
[7]
  TGI: > 100 µM
[8]
  TGI: > 100 µM
[9]
  TGI: > 100 µM

## CC(=O)OCCC/C(=C/c1cc2ccccc2c2ccccc12)[N+](=O)[O-]
[1]
  GI50: 1.43 µM
  TGI: 2.76 µM
[10]
  GI50: 0.495 µM
  TGI: 4.58 µM
[2]
  GI50: 1.64 µM
  TGI: 3 µM
[3]
  GI50: 0.814 µM
  TGI: 2.13 µM
[4]
  GI50: 1.3 µM
  TGI: 2.62 µM
[5]
  GI50: 0.384 µM
  TGI: 1.87 µM
[6]
  GI50: 1.54 µM
  TGI: 2.98 µM
[7]
  GI50: 1.68 µM
  TGI: 3.05 µM
[8]
  GI50: 1.66 µM
  TGI: 3.22 µM
[9]
  GI50: 1.56 µM
  TGI: 2.9 µM

## CCSc1nc(N)c(C#N)c(-c2ccc(OC)c(OC)c2)c1C#N
[1]
  GI50: 9.13 µM
  TGI: > 50 µM
[10]
  GI50: 11.8 µM
  TGI: 37.6 µM
[2]
  GI50: > 50 µM
  TGI: > 50 µM
[3]
  GI50: 26 µM
  TGI: > 50 µM
[4]
  GI50: > 50 µM
  TGI: > 50 µM
[5]
  GI50: > 50 µM
  TGI: > 50 µM
[6]
  GI50: 13.3 µM
  TGI: > 50 µM
[7]
  GI50: 15.7 µM
  TGI: 49.3 µM
[8]
  GI50: 24.7 µM
  TGI: > 50 µM
[9]
  GI50: 18.7 µM
  TGI: 45.7 µM

## Nc1n[nH]c2cc(F)c([C@@H]3Nc4c(F)cc5[nH]ncc5c4[C@H]4C5CCC(C5)[C@@H]34)cc12 (stereo partly specified)
[1]
  GI50: 5.16 µM
  TGI: 23.3 µM
[10]
  GI50: 0.115 µM
  TGI: 11.1 µM
[2]
  GI50: 0.188 µM
  TGI: 11.1 µM
[3]
  GI50: 0.105 µM
  TGI: 3.73 µM
[4]
  GI50: 0.111 µM
  TGI: 3.69 µM
[5]
  GI50: 5.89 µM
  TGI: 26.6 µM
[6]
  GI50: 0.817 µM
  TGI: 9.37 µM
[7]
  GI50: 0.211 µM
  TGI: 7.85 µM
[8]
  GI50: 0.134 µM
  TGI: 14.9 µM
[9]
  GI50: 0.107 µM
  TGI: 5.83 µM

## CC1=CC[C@@H]2C(=O)C=CC=C[C@H]12.[C-]#[O+].[C-]#[O+].[C-]#[O+].[Fe]
[1]
  GI50: > 100 µM
  TGI: > 100 µM
[10]
  GI50: > 100 µM
  TGI: > 100 µM
[2]
  GI50: > 100 µM
  TGI: > 100 µM
[3]
  GI50: > 100 µM
  TGI: > 100 µM
[4]
  GI50: > 100 µM
  TGI: > 100 µM
[6]
  GI50: > 100 µM
  TGI: > 100 µM
[7]
  GI50: > 100 µM
  TGI: > 100 µM
[8]
  GI50: > 100 µM
  TGI: > 100 µM
[9]
  GI50: > 100 µM
  TGI: > 100 µM

## CCCCCCCCCCCc1cc(=O)c2c(O)cccc2o1
[1]
  TGI: > 100 µM
[10]
  TGI: > 100 µM
[2]
  TGI: > 100 µM
[3]
  TGI: > 100 µM
[4]
  TGI: > 100 µM
[6]
  TGI: > 100 µM
[7]
  TGI: > 100 µM
[8]
  TGI: > 100 µM
[9]
  TGI: > 100 µM

## CCOc1ccc2c(c1)[n+]([O-])c(-c1ccc([N+](=O)[O-])cc1)c(N)[n+]2[O-]
[1]
  TGI: > 100 µM
[10]
  TGI: > 100 µM
[2]
  TGI: > 100 µM
[3]
  TGI: > 100 µM
[6]
  TGI: > 100 µM
[7]
  TGI: > 100 µM
[8]
  TGI: > 100 µM
[9]
  TGI: > 100 µM

## CC(C)=CC1(C)/C(=N\O)C(C)(CC(C)C)C(=O)N1O (stereo unspecified)
[1]
  TGI: > 100 µM
[10]
  TGI: > 100 µM
[2]
  TGI: > 100 µM
[3]
  TGI: > 100 µM
[4]
  TGI: > 100 µM
[6]
  TGI: > 100 µM
[7]
  TGI: > 100 µM
[8]
  TGI: > 100 µM
[9]
  TGI: > 100 µM

## CC(NNC(=S)N1CCN(c2ccccn2)CC1)c1cccc[n+]1[O-] (stereo unspecified)
[1]
  TGI: > 100 µM
[10]
  TGI: 96.1 µM
[2]
  TGI: > 100 µM
[3]
  TGI: > 100 µM
[4]
  TGI: > 100 µM
[5]
  TGI: > 100 µM
[7]
  TGI: > 100 µM
[8]
  TGI: > 100 µM
[9]
  TGI: > 100 µM

## COc1ccccc1C(=O)Nc1ccc(Cl)c(C(=O)OC(C)C)c1
[1]
  TGI: > 77.1 µM
[2]
  TGI: 28.4 µM
[3]
  TGI: > 65.4 µM
[4]
  TGI: > 100 µM
[5]
  TGI: 60.1 µM
[6]
  TGI: > 76.8 µM
[7]
  TGI: > 100 µM
[8]
  TGI: > 100 µM
[9]
  TGI: > 93.3 µM

## Cc1ccc(Nn2c(SCC(=O)Nc3nc(-c4ccccc4)cs3)nc(C)c2C)cc1
[1]
  GI50: 2.12 µM
  TGI: 9.29 µM
[2]
  GI50: 4.06 µM
  TGI: 62.9 µM
[3]
  GI50: 8.24 µM
  TGI: > 100 µM
[4]
  GI50: 5.17 µM
  TGI: > 100 µM
[5]
  GI50: 1.85 µM
  TGI: 10.4 µM
[6]
  GI50: 7.58 µM
  TGI: 35.3 µM
[7]
  GI50: 4.41 µM
  TGI: > 100 µM
[8]
  GI50: 7.5 µM
  TGI: > 100 µM
[9]
  GI50: 3.7 µM
  TGI: 48.6 µM

## COc1ccc(C#CC2=C(Br)C(=O)OC2)cc1
[1]
  GI50: 11.9 µM
  TGI: 26.4 µM
[10]
  GI50: 2.63 µM
  TGI: > 50 µM
[2]
  GI50: 3.56 µM
  TGI: 13.2 µM
[3]
  GI50: 1.61 µM
  TGI: 7 µM
[4]
  GI50: 2.63 µM
  TGI: 11.3 µM
[6]
  GI50: 23 µM
  TGI: > 50 µM
[7]
  GI50: 21.5 µM
  TGI: > 50 µM
[8]
  GI50: 12 µM
  TGI: > 50 µM
[9]
  GI50: 10.5 µM
  TGI: 34 µM

## COc1ccccc1N1CCN(CC(O)Cn2c(=O)c3c(OC)nc(C)cc3c(=O)n2-c2ccccc2)CC1 (stereo unspecified)
[10]
  GI50: > 100 µM
  TGI: > 100 µM
[2]
  GI50: 37.9 µM
  TGI: > 100 µM
[3]
  GI50: > 100 µM
  TGI: > 100 µM
[4]
  GI50: > 100 µM
  TGI: > 100 µM
[5]
  GI50: > 100 µM
  TGI: > 100 µM
[6]
  GI50: 43.9 µM
  TGI: > 100 µM
[7]
  GI50: 24.3 µM
  TGI: 76.9 µM
[8]
  GI50: 25.5 µM
  TGI: > 100 µM
[9]
  GI50: > 100 µM
  TGI: > 100 µM

## NC1=C(/C(N)=N/O)C(c2ccccc2)c2ccc3ccccc3c2O1 (stereo unspecified)
[1]
  GI50: 25.1 µM
  TGI: > 100 µM
[10]
  GI50: 0.239 µM
  TGI: > 100 µM
[2]
  GI50: 0.458 µM
  TGI: 51.1 µM
[3]
  GI50: 0.225 µM
  TGI: 0.675 µM
[4]
  GI50: 0.226 µM
  TGI: 20.1 µM
[6]
  GI50: 19.9 µM
  TGI: > 100 µM
[7]
  GI50: 0.513 µM
  TGI: > 58 µM
[8]
  GI50: 0.471 µM
  TGI: > 100 µM
[9]
  GI50: 0.208 µM
  TGI: 21.1 µM

## COc1ccc(/C=C\c2cc(OC)c(OC)c(OC)c2)cc1N/C=C\C(=O)c1c[nH]c2ccccc12
[1]
  GI50: > 100 µM
  TGI: > 100 µM
[10]
  GI50: < 0.01 µM
  TGI: > 100 µM
[2]
  GI50: < 0.01 µM
  TGI: > 100 µM
[3]
  GI50: < 0.01 µM
  TGI: < 0.01 µM
[4]
  GI50: < 0.01 µM
  TGI: > 100 µM
[6]
  GI50: < 0.01 µM
  TGI: 20.3 µM
[7]
  GI50: < 0.01 µM
  TGI: > 100 µM
[8]
  GI50: < 0.01 µM
  TGI: > 100 µM
[9]
  GI50: < 0.01 µM
  TGI: 47.8 µM
